Data set [1] concerns inflammation induced by the stimulation of the saphenous nerve. In words: Inhibition of neurogenic inflammation (plasmatic extravasation) induced by electrical stimulation of the saphenous nerve. To be noted: rat, 15 minutes before electrical stimulation of the saphenous nerve, Evans Blue extravasation. Type of data set: in vivo, male Wistar rats. The procedure:
The results of the pharmacological studies are given below. • 1. The inhibitory power of the molecules on inflammation induced by the stimulation of the saphenous nerve has been measured at follows 24 hours after a treatment with guanethidine (20 mg/kg, sc), the male Wistar rats (220-250 g) are anaesthetized with sodic pentobarbital (60 mg/kg, ip). The two back legs are shaved. After a cut in the upper part of the thigh, the saphenous nerve is cleared, cut, placed on a platinum electrode and immersed in a drop of paraffin oil. Only the electrode placed on the right leg is connected to a stimulator. This latter represents the “stimulated” leg by contrast to the “sham” left leg. The product (at a dosage of 5 μg/kg) or the corresponding solvent (NaCl 9 ‰-DMSO) are administrated via the jugular vein, 15 minutes before the electrical stimulation (ES). A plasmatic marker, Evans Blue (20 mg/kg iv) is administered through the penis vein 5 minutes before the ES. The saphenous nerve is stimulated according to the following conditions: 3V; 5 Hz; 1 ms; 5 minutes (Harvard stimulator). At the end of the ES, a blood sample is realized by cardiac puncture and the skin of the edema of each leg (visualized by the extravasation of the Evans Blue) is sampled and weighted later. The animals are killed by anaesthetical overdose. The blood samples are centrifuged (3,000 rotations/minute, during 15 minutes). […] The Evans Blue is measured in the plasma and after extraction of the skin biopsies by a spectrophotometrical method, at 620 nm. […] The vascular contractile response has been measured with saphenous vein rings of rabbits (new Zealand, 2.5 to 3 kg) bound to a sensor, installed in organs baths (EMKA Technologies), containing a physiological Krebs-[…] solution. […] The vasoconstrictive effect of the molecules with increasing concentrations is evaluated with saphenous vein rings contracted in an intermediate manner with 40 mmol/l KCl and treated with 0.5 μmol/l pargyline, an inhibitor of monoamine oxydase. The results are expressed as percent of the maximum effect induced by serotonine at 1 μmol/l. […]

Data set [2] concerns saphenous vein rings of rabbits. Description: Vascular contractile response of isolated saphenous vein rings. Details: species or system rabbits (new Zealand). To be noted: rabbit saphenous vein rings, percent of the maximum effect induced by serotonine at 1 μmol/l. The procedure:
(§1) 24 hours after a treatment with guanethidine (20 mg/kg, sc), the male Wistar rats (220-250 g) are anaesthetized with sodic pentobarbital (60 mg/kg, ip). The two back legs are shaved. After a cut in the upper part of the thigh, the saphenous nerve is cleared, cut, placed on a platinum electrode and immersed in a drop of paraffin oil. Only the electrode placed on the right leg is connected to a stimulator. This latter represents the “stimulated” leg by contrast to the “sham” left leg. The product (at a dosage of 5 μg/kg) or the corresponding solvent (NaCl 9 ‰-DMSO) are administrated via the jugular vein, 15 minutes before the electrical stimulation (ES). A plasmatic marker, Evans Blue (20 mg/kg iv) is administered through the penis vein 5 minutes before the ES. The saphenous nerve is stimulated according to the following conditions: 3V; 5 Hz; 1 ms; 5 minutes (Harvard stimulator). […] The Evans Blue is measured in the plasma and after extraction of the skin biopsies by a spectrophotometrical method, at 620 nm. […] The vascular contractile response has been measured with saphenous vein rings of rabbits (new Zealand, 2.5 to 3 kg) bound to a sensor, installed in organs baths (EMKA Technologies), containing a physiological Krebs-Henseileit solution. […] The vasoconstrictive effect of the molecules with increasing concentrations is evaluated with saphenous vein rings contracted in an intermediate manner with 40 mmol/l KCl and treated with 0.5 μmol/l pargyline, an inhibitor of monoamine oxydase. The results are expressed as percent of the maximum effect induced by serotonine at 1 μmol/l. […] The binding on the 5HT1B/5HT1D receptors of isolated membranes of bovine nuclear caudal has been measured by measuring the shifting of 5 nmoml/l of [^3H]5-carboxamidotryptamine by increasing concentrations of the molecule in the presence of 100 nmol/l of 8-OH-dipropylaminotetralin (8-OH-DPAT) in order to mask the 5HT1A receptors and in the presence of 100 nM of mesulergine in order to mask the 5HT2 receptors.

In data set [3] the target is 5HT1B/5HT1D receptors of isolated membranes of bovine nuclear caudal. In words: Binding on 5HT1B/5HT1D receptors, shifting of [3H]5-carboxamidotryptamine. To be noted: 100 nmol/l 8-OH-DPAT and 100 nM mesulergine. The procedure: as §1
Data set [4] deals with T1, 5HT1A receptors of isolated membranes of rat brain (Rattus norvegicus, UniProt P19327).
T1 construct: isolated membranes of rat brain; from tissue; host or cells: rat brain membranes
T1 sequence (P19327 1-422): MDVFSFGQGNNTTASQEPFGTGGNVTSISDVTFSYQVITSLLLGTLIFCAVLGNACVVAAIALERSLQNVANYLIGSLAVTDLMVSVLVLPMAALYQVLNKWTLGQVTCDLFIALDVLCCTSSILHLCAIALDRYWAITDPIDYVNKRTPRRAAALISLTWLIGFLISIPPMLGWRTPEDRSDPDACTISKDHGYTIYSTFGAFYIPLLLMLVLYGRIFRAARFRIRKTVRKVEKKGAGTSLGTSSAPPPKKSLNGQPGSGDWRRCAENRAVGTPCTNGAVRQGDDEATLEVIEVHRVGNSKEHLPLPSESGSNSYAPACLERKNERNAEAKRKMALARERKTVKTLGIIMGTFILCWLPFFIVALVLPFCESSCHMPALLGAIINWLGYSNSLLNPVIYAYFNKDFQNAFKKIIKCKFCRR
Description: Binding to 5HT1A receptors, shifting of [3H]8-OH-DPAT. To be noted: 100 nmol/l mesulergine.

The structures appear in SMILES notation. pIC50: −log10 of the molar value. Bounds are passed on as bounds.

With `c1ccc(CN2CCc3[nH]c4ccc(Oc5ccccc5)cc4c3C2)cc1` [Example 2, 8-Phenoxy-N-benzyl-2,3,4,5-tetrahydro-1H-pyrido[4,3-b]indole], the melting point (usually the temperature of the solid-liquid transition) was 102.3 °C. The “Neuro. Inf. Inhib. (%) 5 μg/kg iv” value in data set [1] was 60%. The “Contraction. Saph. Vein 10^−6 mol/l (%)” value in data set [2] is on record as 0%. In addition, the pIC50 (usually −log10 of the IC50, conventionally taken in molar units) in data set [3] is < 5.00. Besides, the pIC50 in data set [4] was < 5.00.
As for `Cl.c1ccc(CN2CCc3[nH]c4ccc(Oc5ccccc5)cc4c3C2)cc1` [Example 3, 8-Phenoxy-N-benzyl-2,3,4,5-tetrahydro-5H-pyridinium[4,3-b]indole-hydrochloride], the “Neuro. Inf. Inhib. (%) 5 μg/kg iv” value in data set [1] amounted to 80%. For the same compound, the “Contraction. Saph. Vein 10^−6 mol/l (%)” value in data set [2] worked out at 0%. In addition, the pIC50 in data set [3] and in data set [4] was < 5.30 each time.
With `c1ccc(Oc2ccc3[nH]c4c(c3c2)CNCC4)cc1` [Example 1, 8-Phenoxy-2,3,4,5-tetrahydro-1H-pyrido[4,3-b]indole], in data set [1], the “Neuro. Inf. Inhib. (%) 5 μg/kg iv” value worked out at 65%. Moreover, in data set [2], the “Contraction. Saph. Vein 10^−6 mol/l (%)” value is 0%. The pIC50 was 5.00 in data set [3] and 4.52 in data set [4].

The values are drawn from patent publication US20080280941A1, “8-Phenoxy-Gamma Carboline Derivatives” (priority 2004, published 2008).
